Structures are written as SMILES. ≈ marks a conversion by molar mass, not a printed value.

Assay [1] deals with Mycobacterium tuberculosis. Briefly: Antimycobacterial activity against Mycobacterium bovis var. bovis BCG in 7H9 liquid medium after 7 days. The format is functional. The following applies: variant bovis BCG, 168 h.
In assay [2] the test system is Mycobacterium tuberculosis. The assay is described as follows: Antimycobacterial activity against Mycobacterium bovis var. bovis BCG in 7H11 solid medium after 7 days. The format is functional. The following applies: variant bovis BCG, 168 h.

`CC(=O)Oc1ccccc1C(=O)Nc1ncc([N+](=O)[O-])s1` [NITAZOXANIDE]: the MIC in assay [1] and in assay [2] was 16 µg/mL (≈ 52.1 µM) each time.

For orientation: MIC means the lowest concentration found to suppress growth. High values mean a need for much substance, low ones inhibition by little substance.

The record behind these values is ChEMBL document CHEMBL1153535, “Nitazoxanide kills replicating and nonreplicating Mycobacterium tuberculosis and evades resistance” (J Med Chem, 2009).
